Results on 10 compounds are retold here after US20190010158A1, “ANTITUMOR EFFECT POTENTIATOR COMPRISING PYRROLOPYRIMIDINE COMPOUND” (TAIHO PHARMACEUTICAL CO., LTD, priority 2015, published 2019).

Test [1] addresses T1, NAE (heterodimer of APPBP1 and UBA3) (Homo sapiens, UniProt Q8TBC4).
T1 construct: amino acids 1 to 463 of human UBA3 protein; made in house; host or cells: Sf9 insect cells (baculovirus co-infection) for NAE; E. coli BL21 (DE3) for GST-UBC12
T1 sequence (Q8TBC4 1-463): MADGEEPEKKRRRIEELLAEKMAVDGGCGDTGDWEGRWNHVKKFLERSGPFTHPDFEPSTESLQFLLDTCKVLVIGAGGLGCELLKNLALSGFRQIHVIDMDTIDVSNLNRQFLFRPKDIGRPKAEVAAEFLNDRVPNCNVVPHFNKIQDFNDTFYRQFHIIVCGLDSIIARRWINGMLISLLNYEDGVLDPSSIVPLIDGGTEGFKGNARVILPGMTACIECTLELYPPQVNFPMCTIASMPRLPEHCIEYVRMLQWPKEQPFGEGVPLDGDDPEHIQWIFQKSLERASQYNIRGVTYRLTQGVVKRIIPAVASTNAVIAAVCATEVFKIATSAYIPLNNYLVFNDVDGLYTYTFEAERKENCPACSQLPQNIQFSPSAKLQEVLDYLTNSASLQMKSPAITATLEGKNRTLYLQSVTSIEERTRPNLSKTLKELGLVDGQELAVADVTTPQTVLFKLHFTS
T1 sequence (Q13564 1-534 partner): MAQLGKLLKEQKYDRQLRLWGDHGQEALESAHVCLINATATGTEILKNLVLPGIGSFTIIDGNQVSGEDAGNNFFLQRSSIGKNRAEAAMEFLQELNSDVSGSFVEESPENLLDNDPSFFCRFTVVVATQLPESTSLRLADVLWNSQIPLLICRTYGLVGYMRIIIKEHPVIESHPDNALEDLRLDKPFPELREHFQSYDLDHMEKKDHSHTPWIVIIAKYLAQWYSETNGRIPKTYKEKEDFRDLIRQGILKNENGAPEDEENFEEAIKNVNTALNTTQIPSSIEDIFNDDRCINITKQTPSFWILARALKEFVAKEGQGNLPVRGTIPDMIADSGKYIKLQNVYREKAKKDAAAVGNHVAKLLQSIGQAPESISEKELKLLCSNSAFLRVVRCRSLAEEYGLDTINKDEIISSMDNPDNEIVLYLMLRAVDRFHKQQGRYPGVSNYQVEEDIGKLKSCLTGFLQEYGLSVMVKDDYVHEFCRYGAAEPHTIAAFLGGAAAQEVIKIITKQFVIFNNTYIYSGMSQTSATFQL
The test can be described thus: Nedd8 conjugation inhibitory activity (AlphaScreen). The format is biochemical. As to conditions: purified NAE, GST-UBC12, ATP, Biotin-Nedd8, reaction 90 minutes. Background: Alpha assays give light when donor and acceptor beads are brought close together.

The subject of test [2] is tumor cell lines shown in Table 42. The test can be described thus: Example 11: combined use with antimetabolite, cell growth inhibition test (IC50 ratio, CI). The format is cell-based.
Setting [3] is: A431, IC50 of Reference Example Compound 55 : IC50 of other compound = 1:value.
[4] abbreviates: A431, combined use with Reference Example Compound 55.

Values joined by “and” are separate entries in the source; they are usually repeats but may differ in a detail not shown here. Equal values may be shown once. Read-outs that look alike come from different tables or passages of the source.

In turn, `Nc1cc(F)c(C#Cc2cn([C@@H]3O[C@H](CNS(N)(=O)=O)[C@@H](O)[C@H]3O)c3ncnc(N)c23)c(F)c1` [Reference Example 24, 4-Amino-5-[2-(4-amino-2,6-difluoro-phenyl)ethynyl]-7-[(2R,3R,4S,5R)-3,4-dihydroxy-5-[(sulfamoylamino)methyl]tetrahydrofuran-2-yl]pyrrolo[2,3-d]pyrimidine] gave an IC50 in test [1] of at most 0.003 µM.
On the same count and under the same terms, with `CCS(=O)(=O)c1cc(N2CC[C@@H](F)C2)cc(F)c1C#Cc1cn([C@@H]2O[C@H](CNS(N)(=O)=O)[C@@H](O)[C@H]2O)c2ncnc(N)c12` [Reference Example 75, 4-Amino-7-[(2R,3R,4S,5R)-3,4-dihydroxy-5-[(sulfamoylamino)methyl]tetrahydrofuran-2-yl]-5-[2-[2-ethylsulfonyl-6-fluoro-4-[(3R)-3-fluoropyrrolidin-1-yl]phenyl]ethynyl]pyrrolo[2,3-d]pyrimidine] the figure was at most 0.003 µM.
In test [1], `COC(=O)c1cc(F)c(C#Cc2cn([C@@H]3O[C@H](CNS(N)(=O)=O)[C@@H](O)[C@H]3O)c3ncnc(N)c23)c(F)c1` [Reference Example 58, Methyl 4-[2-[4-amino-7-[(2R,3R,4S,5R)-3,4-dihydroxy-5-[(sulfamoylamino)methyl]tetrahydrofuran-2-yl]pyrrolo[2,3-d]pyrimidin-5-yl]ethynyl]-3,5-difluoro-benzoate] returned an IC50 of at most 0.003 µM.
In test [1], `Nc1ncnc2c1c(C#Cc1c(F)cc(N3CCOCC3)cc1F)cn2[C@@H]1O[C@H](CNS(N)(=O)=O)[C@@H](O)[C@H]1O` [Reference Example 23, 4-[4-[2-[4-Amino-7-[(2R,3R,4S,5R)-3,4-dihydroxy-5-[(sulfamoylamino)methyl]tetrahydrofuran-2-yl]pyrrolo[2,3-d]pyrimidin-5-yl]ethynyl]-3,5-difluoro-phenyl]morpholine] displayed an IC50 of at most 0.003 µM.
On the same count and under the same terms, for `COc1ccc(C#Cc2cn([C@@H]3C[C@H](CNS(N)(=O)=O)[C@@H](O)[C@H]3O)c3ncnc(N)c23)c(S(C)(=O)=O)c1` [Reference Example 113, 4-Amino-7-[(1R,2S,3R,4R)-2,3-dihydroxy-4-[(sulfamoylamino)methyl]cyclopentyl]-5-[2-(4-methoxy-2-methylsulfonyl-phenyl)ethynyl]pyrrolo[2,3-d]pyrimidine] the value was at most 0.003 µM; for `CCS(=O)(=O)c1cc(N2CCCC2)cc(F)c1C#Cc1cn([C@@H]2C[C@H](CNS(N)(=O)=O)[C@@H](O)[C@H]2O)c2ncnc(N)c12` [Reference Example 114, 4-Amino-7-[(1R,2S,3R,4R)-2,3-dihydroxy-4-[(sulfamoylamino)methyl]cyclopentyl]-5-[2-(2-ethylsulfonyl-6-fluoro-4-pyrrolidin-1-yl-phenyl)ethynyl]pyrrolo[2,3-d]pyrimidine], at most 0.003 µM.
As for `Sc1ncnc2nc[nH]c12` [6-Mercaptopurine, 6-mercaptopurine], the “IC50 Ratio” value in test [2] (MM.1S, IC50 of Reference Example Compound 55 : IC50 of other compound = 1:value) is reported as 169. For the same compound, the CI is 0.61 in test [2] (MM.1S, Reference Example Compound 55:other compound 1:100, at ED50) and 0.80 in test [2] (MM.1S, Reference Example Compound 55:other compound 1:300, at ED50). In test [2] (MM.1S, combined use with Reference Example Compound 55), the “Comprehensive Evaluation” value is “Moderate”.
With `Nc1nc2[nH]cc(CCc3ccc(C(=O)N[C@@H](CCC(=O)O)C(=O)O)cc3)c2c(=O)[nH]1` [Pemetrexed, pemetrexed], in test [2], the CI is 0.73 and 0.55; the “Comprehensive Evaluation” value was “Moderate”; the “IC50 Ratio” value was found to be 34.
`O=c1[nH]cc(F)c(=O)[nH]1` [Fluorouracil, fluorouracil]: the “IC50 Ratio” value in test [2] (setting [3]) worked out at 0.8. Besides, the CI was determined as 0.44 in test [2] (A431, Reference Example Compound 55:other compound 1:0.56, at ED50) and 0.20 in test [2] (A431, Reference Example Compound 55:other compound 1:1.67, at ED50). Besides, the “Comprehensive Evaluation” value in test [2] (setting [4]) is “Synergism (0.3-0.7)”.
On to `Nc1ccn([C@@H]2O[C@H](CO)[C@@H](O)C2(F)F)c(=O)n1` [Gemcitabine, gemcitabine], for which the “IC50 Ratio” value in test [2] (setting [3]) was 0.01. Also, the CI in test [2] (A431, Reference Example Compound 55:other compound 1:0.007, at ED50) is reported as 0.70; in test [2] (A431, Reference Example Compound 55:other compound 1:0.02, at ED50), 0.49. In addition, the “Comprehensive Evaluation” value in test [2] (setting [4]) is on record as “Synergism (0.3-0.7)”.

In general, IC50 refers to the point on the concentration scale where inhibition reaches its midpoint.
